Where a name gives a salt, the structure may show the parent alone. Read-outs that look alike come from different tables or passages of the source.
Target: c-fms (Homo sapiens, UniProt P07333)
Test: autophosphorylation, fluorescence polarization competition immunoassay for c-fms inhibition
Format: biochemical
Conditions: read-out: c-fins IC50
Description: The assay buffer used was 100 mM 4-(2-hydroxyethyl)piperazine 1-ethanesulfonic acid (HEPES), pH 7.5, 1 mM 1,4-dithio-DL-threitol (DTT), 0.01% (v/v) Tween-20. Compounds were diluted in assay buffer containing 4% dimethylsulfoxide (DMSO) just prior to the assay. […] The kinase reaction was initiated by adding 2 μL of 5 mM ATP (Sigma) in assay buffer. The final concentrations in the assay were 10 nM c-fms, 1 mM ATP, 5 mM MgCl2, 2% DMSO. Control reactions were ran in each plate: in positive and negative control wells, assay buffer (made 4% in DMSO) was substituted for the compound; in addition, positive control wells received 1.2 μL of 50 mM ethylenediaminetetraaceticacid (EDTA).
The plates were incubated at room temperature for 45 min. At the end of the incubation, the reaction was quenched with 1.2 μL of 50 mM EDTA (EDTA was not added to the positive control wells at this point; see above). Following a 5-min incubation, each well received 10 μL of a 1:1:3 mixture of anti-phosphotyrosine antibody, 10X, PTK green tracer, 10X (vortexed), FP dilution buffer, respectively (all from PanVera, cat. # P2837). The plate was covered, incubated for 30 min at room temperature and the fluorescence polarization was read on the Analyst. […] The reported IC50 values are averages of three independent measurements.

[1] = 10 nM c-fms, 1 mM ATP, 5 mM MgCl2, 2% DMSO, 45 min at room temperature, averages of three independent measurements

Sequence of c-fms (P07333 20-972): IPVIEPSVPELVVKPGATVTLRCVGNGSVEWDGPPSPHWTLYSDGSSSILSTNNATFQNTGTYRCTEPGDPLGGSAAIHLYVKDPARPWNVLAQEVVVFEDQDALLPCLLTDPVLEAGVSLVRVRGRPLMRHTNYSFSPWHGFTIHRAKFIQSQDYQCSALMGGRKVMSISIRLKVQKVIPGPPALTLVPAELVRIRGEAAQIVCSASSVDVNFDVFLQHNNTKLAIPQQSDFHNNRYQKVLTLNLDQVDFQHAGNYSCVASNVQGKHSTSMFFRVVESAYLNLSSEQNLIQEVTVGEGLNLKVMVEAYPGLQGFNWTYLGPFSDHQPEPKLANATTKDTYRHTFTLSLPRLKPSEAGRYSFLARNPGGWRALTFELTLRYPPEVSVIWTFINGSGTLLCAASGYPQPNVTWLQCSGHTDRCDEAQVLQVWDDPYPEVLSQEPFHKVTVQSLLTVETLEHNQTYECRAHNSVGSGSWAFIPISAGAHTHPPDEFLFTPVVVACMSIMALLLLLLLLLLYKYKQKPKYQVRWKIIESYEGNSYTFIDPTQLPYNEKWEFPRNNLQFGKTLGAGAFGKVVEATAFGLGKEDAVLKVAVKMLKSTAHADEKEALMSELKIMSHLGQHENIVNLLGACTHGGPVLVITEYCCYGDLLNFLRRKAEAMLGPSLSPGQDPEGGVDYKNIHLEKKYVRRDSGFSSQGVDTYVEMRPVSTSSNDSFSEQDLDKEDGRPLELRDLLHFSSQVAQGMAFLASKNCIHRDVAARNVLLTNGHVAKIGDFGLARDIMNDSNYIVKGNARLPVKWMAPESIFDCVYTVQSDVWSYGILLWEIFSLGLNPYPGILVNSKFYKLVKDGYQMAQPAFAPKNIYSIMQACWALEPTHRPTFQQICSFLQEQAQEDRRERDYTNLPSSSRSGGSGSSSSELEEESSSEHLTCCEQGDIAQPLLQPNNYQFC

SMILES	IC50	IC50 [1]
Cc1ccsc1-c1cc(N2CCN(C)CC2)ccc1NC(=O)c1ccc(C#N)o1 [Example 4, 5-Cyano-furan-2-carboxylic acid [4-(4-methyl-piperazin-1-yl)-2-(3-methyl-thiophen-2-yl)-phenyl]-amide]	470 nM	–
Cc1cscc1-c1cc(N2CCN(C)CC2)ccc1NC(=O)c1ccc(C#N)o1 [Example 5, 5-Cyano-furan-2-carboxylic acid [4-(4-methyl-piperazin-1-yl)-2-(4-methyl-thiophen-3-yl)-phenyl]-amide]	–	950 nM
Cc1ccccc1-c1cc(N2CCN(C)CC2)ccc1NC(=O)c1ccc(C#N)o1 [Example 9, 5-Cyano-furan-2-carboxylic acid [2 ′-methyl-5-(4-methyl-piperazin-1-yl)-biphenyl-2-yl]-amide]	–	630 nM
CN1CCN(c2ccc(NC(=O)c3ccc(C#N)o3)c(-c3ccccc3F)c2)CC1 [Example 10, 5-Cyano-furan-2-carboxylic acid [2′-fluoro-5-(4-methyl-piperazin-1-yl)-biphenyl-2-yl]-amide]	–	900 nM
CN1CCN(c2ccc(NC(=O)c3ccc(C#N)o3)c(C3=CCOCC3)c2)CC1 [Example 12]	–	60 nM
N#Cc1c[nH]c(C(=O)Nc2ccc(C3CCNCC3)cc2C2=CCCCC2)c1 [Example 13, 4-Cyano-1H-pyrrole-2-carboxylic acid (2-cyclohex-1-enyl-4-piperidin-4-yl-phenyl)-amide trifluoroacetic acid salt]	–	12 nM
CC(=O)N1CCC(c2ccc(NC(=O)c3cc(C#N)c[nH]3)c(C3=CCCCC3)c2)CC1 [Example 15, 4-Cyano-1H-pyrrole-2-carboxylic acid [4-(1-acetyl-piperidin-4-yl)-2-cyclohex-1-enyl-phenyl]-amide]	–	28 nM
CC1CC=C(c2cc(C3CCN(Cc4ccccn4)CC3)ccc2NC(=O)c2nc(C#N)c[nH]2)CC1 (stereo not shown) [Example 22, 4-Cyano-1H-imidazole-2-carboxylic acid [2-(4-methyl-cyclohex-1-enyl)-4-(1-pyridin-2-ylmethyl-piperidin-4-yl)-phenyl]-amide trifluoroacetic acid salt]	–	1.4 nM
Cn1ccnc1CN1CCC(c2ccc(NC(=O)c3nc(C#N)c[nH]3)c(C3=CCCC3)c2)CC1 [Example 23, 4-Cyano-1H-imidazole-2-carboxylic acid {2-cyclopent-1-enyl-4-[1-(1-methyl-1H-imidazol-2-ylmethyl)-piperidin-4-yl]-phenyl}-amide trifluoroacetic acid salt]	–	6.6 nM
N#Cc1c[nH]c(C(=O)Nc2ccc(C3CCS(=O)(=O)CC3)cc2C2=CCCCC2)n1 [Example 35, 4-Cyano-1H-imidazole-2-carboxylic acid [2-cyclohex-1-enyl-4-(1,1-dioxo-hexahydro-1λ^6-thiopyran-4-yl)-phenyl]-amide]	–	2.9 nM
N#Cc1c[nH]c(C(=O)Nc2ccc(C3CCNCC3)cc2C2=CCS(=O)(=O)CC2)n1 [Example 36, 4-Cyano-1H-imidazole-2-carboxylic acid [2-(1,1-dioxo-1,2,3,6-tetrahydro-1λ^6-thiopyran-4-yl)-4-piperidin-4-yl-phenyl]-amide trifluoroacetic acid salt]	–	60 nM
CC(=O)N1CCC(c2ccc(NC(=O)c3nc(C#N)c[nH]3)c(C3=CCS(=O)(=O)CC3)c2)CC1 [Example 37, 4-Cyano-1H-imidazole-2-carboxylic acid [4-(1-acetyl-piperidin-4-yl)-2-(1,1-dioxo-1,2,3,6-tetrahydro-1λ^6-thiopyran-4-yl)-phenyl]-amide]	–	60 nM
CNCC(=O)N1CCC(c2ccc(NC(=O)c3nc(C#N)c[nH]3)c(C3=CCCCC3)c2)CC1 [Example 38b, 4-Cyano-1H-imidazole-2-carboxylic acid {2-cyclohex-1-enyl-4-[1-(2-methylamino-acetyl)-piperidin-4-yl]-phenyl}-amide]	–	1.4 nM
O=C(Nc1ccc(C2CCNCC2)cc1C1=CCCCC1)c1nnc[nH]1 [Example 49, 4H-[1,2,4]-triazole-3-carboxylic acid (2-cyclohex-1-enyl-4-piperidin-4-yl-phenyl)-amide bis trifluoroacetic acid salt]	–	60 nM
O=C(Nc1ccc(C2CCNCC2)cc1C1=CCCCC1)c1nnc(Cl)[nH]1 [Example 50, 5-Chloro-4H-[1,2,4]-triazole-3-carboxylic acid (2-cyclohex-1-enyl-4-piperidin-4-yl-phenyl)-amide trifluoroacetic acid salt]	–	60 nM
C[C@@H]1CC(c2ccc(NC(=O)c3ncc(C#N)[nH]3)c(C3=CCCCC3)c2)C[C@H](C)N1 (stereo partly drawn) [Example 51a, 5-Cyano-1H-imidazole-2-carboxylic acid [2-cyclohex-1-enyl-4-(cis-2,6-dimethyl-piperidin-4-yl)-phenyl]-amide bis trifluoroacetic acid salt]	–	0.2 nM
C[C@H]1CC(c2ccc(NC(=O)c3ncc(C#N)[nH]3)c(C3=CCCCC3)c2)C[C@H](C)N1 (stereo partly drawn) [Example 51b, 5-cyano-1H-imidazole-2-carboxylic acid [2-cyclohex-1-enyl-4-(trans-2,6-dimethyl-piperidin-4-yl)-phenyl]-amide bis trifluoroacetic acid salt]	–	0.4 nM
CON1CCC(c2ccc(NC(=O)c3ncc(C#N)[nH]3)c(C3=CCCCC3)c2)CC1 [Example 53, 5-Cyano-1H-imidazole-2-carboxylic acid [2-cyclohex-1-enyl-4-(1-methoxy-piperidin-4-yl)-phenyl]-amide trifluoroacetic acid salt]	–	5.3 nM
CC1(C)CC=C(c2nc(C3CCNCC3)ccc2NC(=O)c2nc(C#N)c[nH]2)CC1 [Example 54, 4-Cyano-1H-imidazole-2-carboxylic acid [6-(4,4-dimethyl-cyclohex-1-enyl)-1′,2′,3′,4′,5′,6′-hexahydro-[2,4′]bipyridinyl-5-yl]-amide trifluoroacetic acid salt]	–	0.8 nM
CN(C)CC(=O)N1CCC(c2ccc(NC(=O)c3nc(C#N)c[nH]3)c(C3=CCC(C)(C)CC3)n2)CC1 [Example 55, 4-Cyano-1H-imidazole-2-carboxylic acid [1′-(2-dimethylamino-acetyl)-6-(4,4-dimethyl-cyclohex-1-enyl)-1′,2′,3′,4′,5′,6′-hexahydro-[2,4′]bipyridinyl-5-yl]-amide trifluoroacetic acid salt]	–	0.7 nM
CC1(C)CC=C(c2nc(C3CCN(CCS(C)(=O)=O)CC3)ccc2NC(=O)c2nc(C#N)c[nH]2)CC1 [Example 56, 4-Cyano-1H-imidazole-2-carboxylic acid [6-(4,4-dimethyl-cyclohex-1-enyl)-1′-(2-methanesulfonyl-ethyl)-1′,2′,3′,4′,5′,6′-hexhydro-[2,4′]bipyridinyl-5-yl]-amide trifluoroacetic acid salt]	–	1 nM
CS(=O)(=O)CCN1CCC(c2ccc(NC(=O)c3nc(C#N)c[nH]3)c(C3=CCCCC3)n2)CC1 [Example 58, 5-Cyano-1H-imidazole-2-carboxylic acid [6-cyclohex-1-enyl-1′-(2-methanesulfonyl-ethyl)-1′,2′,3′,4′,5′,6′-hexahydro-[2,4′]bipyridinyl-5-yl]-amide]	–	7 nM

— patent US7645755B2, “Inhibitors of c-fms kinase” (Janssen Pharmaceutical N.V., priority 2004, dated 2010)
